Test results taken from article PMC4420714 (Peptides, 2015).
“Also recorded” adds a separate entry of the source. Like-named read-outs stand apart in the source and are kept apart here.

Columns and labels:
PAC1-R [1] = target: T1, PAC1-R (Homo sapiens, UniProt P41586); experiment: [3H]cAMP generation in PAC1-R cells; type: cell-based
T1 sequence (P41586 21-468): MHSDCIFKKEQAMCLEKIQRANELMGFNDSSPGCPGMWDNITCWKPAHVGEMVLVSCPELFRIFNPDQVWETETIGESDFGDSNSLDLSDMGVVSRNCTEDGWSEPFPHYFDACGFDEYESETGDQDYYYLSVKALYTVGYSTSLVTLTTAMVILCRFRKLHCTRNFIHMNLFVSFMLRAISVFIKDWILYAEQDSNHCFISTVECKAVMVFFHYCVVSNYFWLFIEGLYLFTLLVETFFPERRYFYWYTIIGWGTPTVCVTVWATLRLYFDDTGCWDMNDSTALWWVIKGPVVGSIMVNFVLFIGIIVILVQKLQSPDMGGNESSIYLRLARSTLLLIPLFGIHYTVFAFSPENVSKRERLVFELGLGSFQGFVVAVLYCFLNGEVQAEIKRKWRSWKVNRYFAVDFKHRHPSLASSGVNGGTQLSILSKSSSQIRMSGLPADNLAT

VPAC1-R [2] = target: T2, VPAC1-R (Homo sapiens, UniProt P32241); experiment: [3H]cAMP generation in VPAC1-R/PANC-1 cells; type: cell-based
T2 sequence (P32241 31-457): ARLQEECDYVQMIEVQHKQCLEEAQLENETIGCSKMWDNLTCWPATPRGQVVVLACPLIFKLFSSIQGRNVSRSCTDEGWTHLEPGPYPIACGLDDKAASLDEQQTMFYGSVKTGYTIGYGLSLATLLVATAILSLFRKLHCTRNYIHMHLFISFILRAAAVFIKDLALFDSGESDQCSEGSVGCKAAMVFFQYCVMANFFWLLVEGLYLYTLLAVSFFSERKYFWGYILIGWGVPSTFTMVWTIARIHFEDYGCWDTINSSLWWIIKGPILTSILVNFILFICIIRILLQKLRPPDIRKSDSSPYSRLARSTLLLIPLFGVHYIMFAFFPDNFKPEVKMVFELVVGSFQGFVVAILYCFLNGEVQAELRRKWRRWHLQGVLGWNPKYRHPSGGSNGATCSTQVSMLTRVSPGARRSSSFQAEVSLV

VPAC2-R [3] = target: T3, VPAC2-R (Homo sapiens, UniProt P41587); experiment: [3H]cAMP generation in VPAC2-R/PANC-1 cells; type: cell-based
T3 sequence (P41587 24-438): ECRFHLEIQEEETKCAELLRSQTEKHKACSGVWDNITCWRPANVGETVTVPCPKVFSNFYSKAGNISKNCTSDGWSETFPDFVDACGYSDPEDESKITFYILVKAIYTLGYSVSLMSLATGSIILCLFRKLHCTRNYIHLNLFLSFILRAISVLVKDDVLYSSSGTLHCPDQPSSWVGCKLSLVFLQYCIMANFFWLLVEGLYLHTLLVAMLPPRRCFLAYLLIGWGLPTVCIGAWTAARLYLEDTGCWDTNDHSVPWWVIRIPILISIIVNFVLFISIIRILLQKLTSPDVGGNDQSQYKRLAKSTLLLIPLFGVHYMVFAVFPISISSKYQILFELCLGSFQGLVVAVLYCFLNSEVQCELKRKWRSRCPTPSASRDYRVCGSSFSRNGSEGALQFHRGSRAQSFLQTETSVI

PAC1-R [4] = target: T1, PAC1-R; experiment: [3H]Inositol phosphate generation; type: cell-based; conditions: PAC1-R cells, IP EC50/cAMP EC50
PAC1-R [5] = target: T1, PAC1-R; experiment: Binding of 125I-PACAP27 to PAC1-R stably transfected NIH 3T3 cells
VPAC1-R [6] = target: T2, VPAC1-R; experiment: Binding of 125I-VIP to VPAC1-R/PANC-1 cells; conditions: ratio of binding IC50, analog vs native parent peptide
VPAC2-R [7] = target: T3, VPAC2-R; experiment: Binding of 125I-PACAP27 to VPAC2-R/PANC-1 cells; conditions: ratio of binding IC50, analog vs native parent peptide
VPAC1-R [8] = target: T2, VPAC1-R; experiment: [3H]cAMP generation in T47D cells; type: cell-based; conditions: for [3H]cAMP T47D % max (agonist class): relative to PACAP38, up to 1 µM
PAC1-R [9] = target: T1, PAC1-R; conditions: PAC1-R over VPAC1-R; ref [13]; cited from earlier work

Row | lower affinity for PAC1-R cells than VPAC1-R/PANC-1 cells (PAC1-R [5]; binding IC50 ratio, VPAC1-R preferring) | [3H]cAMP VPAC1-R/PANC-1 % max (agonist class) (VPAC1-R [2]; VPAC1-R/PANC-1 cells, relative to PACAP38, up to 1 µM) | [3H]cAMP T47D % max, agonist activity at 1 µM, still increasing (VPAC1-R [8]; at 1 µM) | [3H]cAMP VPAC2-R/PANC-1 % max (agonist class) (VPAC2-R [3]; VPAC2-R/PANC-1 cells, relative to PACAP38, up to 1 µM) | Substance | maximal increase in cAMP, PAC1-R cells (PAC1-R [1]) [fold] | coupling ratio (IC50-binding affinity/EC50-cAMP generation), VPAC1-R/PANC-1 cells (VPAC1-R [2]) [fold] | maximal increase in cAMP, VPAC1-R/PANC-1 cells (VPAC1-R [2]) [fold] | maximal increase in cAMP, VPAC2-R/PANC-1 cells (VPAC2-R [3]; over control) [fold] | less potent at stimulating [3H]IP (PLC) than cAMP (PAC1-R [4]) [fold] | decrease in affinity for PAC1-R cells compared to native PACAP38 (or PACAP27) (PAC1-R [5]) | lower affinity for PAC1-R cells than VPAC1-R/PANC-1 cells (PAC1-R [5]) | lower affinity for PAC1-R cells than VPAC2-R/PANC-1 cells (PAC1-R [5]) | decrease in affinity for VPAC1-R/PANC-1 cells compared to native PACAP38 (or PACAP27, VIP) (VPAC1-R [6]) [fold] | decrease in affinity for VPAC2-R/PANC-1 cells compared to native PACAP38 (or PACAP27, VIP) (VPAC2-R [7]) [fold] | higher potency for PAC1-R cells compared to VPAC1-R/PANC-1 cells (PAC1-R [1]) | higher potency for PAC1-R cells compared to VPAC2-R/PANC-1 cells (PAC1-R [1]) | [3H]cAMP T47D % max of partial agonist (VPAC1-R [8]; partial agonist maximum) | [3H]cAMP T47D % max (agonist class) (VPAC1-R [8]) | PAC1-selectivity reported in a previous study (PAC1-R [9]) [fold] | [3H]cAMP PAC1-R % max (agonist class) (PAC1-R [1]; PAC1-R cells, relative to maximal stimulation by PACAP38, up to 1 µM)
1 |  |  |  |  | PACAP38 [reference compound] | 4.1 ± 1.5 | 2.5 | 5.0 ± 0.7 | 6.5 ± 2.0 | 19 |  |  |  |  |  |  |  |  |  |  | 
2 |  |  |  |  | [D-Ser^2]PACAP27 [Peptide P4] |  |  |  |  |  | 15–25 fold | 6–10 fold | 2–9 fold | 37 | 7 | 2-to-5 fold | 12–140 fold | pAg (90) % max | pAg (90) | 3 | 
3 | 6–10 fold | Ag (1 µM, 68) | Ag (1 µM, 68) % max | Ag (1 µM, 52) | [Pro^3]VIP [Peptide P50] |  |  |  |  |  |  |  |  | > 500 | > 500 |  |  |  | Ag (1 µM, 68) |  | no agonist activity; also recorded: No Act
